pKd: −log10 of the molar value.
Columns and labels:
[1] = molecular target: T1, S. aureus coagulase (Coa); 6×His-Coa; WT-Coa (Staphylococcus aureus, UniProt Q2G1D3); assay: plate coagulation assay (agarose, fibrinogen, rabbit plasma); assay type: biochemical; conditions: 2.5 mg/ml Coa; 37 °C overnight; rabbit plasma as prothrombin source
T1 construct: gene SAOUHSC_00192; 6×His-tagged Coa from pET15b-Coa, expressed in E. coli BL21(DE3), Ni-NTA purified

[2] = molecular target: T1, S. aureus coagulase (Coa); 6×His-Coa; WT-Coa; assay: intrinsic fluorescence quenching; assay type: binding
[3] = molecular target: T2, S. aureus coagulase (Coa); 6×His-Coa; WT-Coa (Staphylococcus aureus, UniProt Q2G1D3, N267A); assay: biochemical
T2 construct: gene SAOUHSC_00192
Source text: (§1) intrinsic fluorescence quenching on S. aureus coagulase (Coa); 6×His-Coa; WT-Coa

[4] = molecular target: T3, S. aureus coagulase (Coa); 6×His-Coa; WT-Coa (Staphylococcus aureus, UniProt Q2G1D3, P268A); assay: biochemical
T3 construct: gene SAOUHSC_00192
Source text: as §1

[5] = molecular target: T4, S. aureus coagulase (Coa); 6×His-Coa; WT-Coa (Staphylococcus aureus, UniProt Q2G1D3, V191A); assay: biochemical
T4 construct: gene SAOUHSC_00192
Source text: as §1

[6] = molecular target: T5, S. aureus coagulase (Coa); 6×His-Coa; WT-Coa (Staphylococcus aureus, UniProt Q2G1D3, Y188A); assay: biochemical
T5 construct: gene SAOUHSC_00192
Source text: as §1

O=c1cc(-c2ccc(O)cc2)oc2cc(O)c([C@@H]3O[C@H](CO)[C@@H](O)[C@H](O)[C@H]3O)c(O)c12 [isovitexin, apigenin-6-C-β-glucopyranoside]
diameter of coagulation zone, % of control, at 128 μg/ml [1]: 47.50%
pKd [2]: 5.00
pKd [3]: 4.91
pKd [4]: 4.71
pKd [5]: 4.64
pKd [6]: 4.94

— PMC9706020, “Isovitexin Is a Direct Inhibitor of Staphylococcus aureus Coagulase” (Journal of Microbiology and Biotechnology, 2021)
